#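 Results reflect a 48-hour exposure of cells in 96-well plates to compound at five concentrations. Abbreviation: GI50, concentration required for 50% inhibition of growth. TGI marks complete inhibition of growth.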
# Tests used:
# Assay in all cases: growth of human tumour cells (NCI), 48 h
# SF-295 CNS = system: SF-295 CNS
# RXF 393 renal = system: RXF 393 renal
# HCT-116 colon = system: HCT-116 colon
# CAKI-1 renal = system: CAKI-1 renal
# SNB-75 CNS = system: SNB-75 CNS
# T-47D breast = system: T-47D breast
# NCI-H522 lung = system: NCI-H522 lung
# LOX IMVI melanoma = system: LOX IMVI melanoma
# HOP-62 NSCLC = system: HOP-62 NSCLC
# TK-10 renal = system: TK-10 renal
# HOP-92 NSCLC = system: HOP-92 NSCLC
# SK-MEL-2 melanoma = system: SK-MEL-2 melanoma
# SN12C renal = system: SN12C renal
# CCRF-CEM leukemia = system: CCRF-CEM leukemia
# OVCAR-4 ovarian = system: OVCAR-4 ovarian
# BT-549 breast = system: BT-549 breast
# OVCAR-5 ovarian = system: OVCAR-5 ovarian
# HCT-15 colon = system: HCT-15 colon
# K-562 leukemia = system: K-562 leukemia
# SF-539 CNS = system: SF-539 CNS
# RPMI-8226 leukemia = system: RPMI-8226 leukemia
# COLO 205 colon = system: COLO 205 colon
# MALME-3M melanoma = system: MALME-3M melanoma
# U251 CNS = system: U251 CNS
# EKVX NSCLC = system: EKVX NSCLC
# HCC-2998 colon = system: HCC-2998 colon
# M14 melanoma = system: M14 melanoma
# HL-60(TB) leukemia = system: HL-60(TB) leukemia
# ACHN renal = system: ACHN renal
# OVCAR-8 ovarian = system: OVCAR-8 ovarian
# SW-620 colon = system: SW-620 colon
# NCI-H226 lung = system: NCI-H226 lung
# UACC-62 melanoma = system: UACC-62 melanoma
# NCI/ADR-RES ovarian = system: NCI/ADR-RES ovarian
# KM12 colon = system: KM12 colon
# OVCAR-3 ovarian = system: OVCAR-3 ovarian
# SK-MEL-28 melanoma = system: SK-MEL-28 melanoma
# MCF7 breast = system: MCF7 breast
# HT29 colon = system: HT29 colon
# UACC-257 melanoma = system: UACC-257 melanoma
# SNB-19 CNS = system: SNB-19 CNS
# PC-3 prostate = system: PC-3 prostate
# DU-145 prostate = system: DU-145 prostate
# SF-268 CNS = system: SF-268 CNS
# SK-MEL-5 melanoma = system: SK-MEL-5 melanoma
# MOLT-4 leukemia = system: MOLT-4 leukemia
# NCI-H23 lung = system: NCI-H23 lung
# A498 renal = system: A498 renal
# SR leukemia = system: SR leukemia
# SK-OV-3 ovarian = system: SK-OV-3 ovarian
# IGROV1 ovarian = system: IGROV1 ovarian
# NCI-H460 lung = system: NCI-H460 lung
# MDA-MB-435 = system: MDA-MB-435
# A549 NSCLC = system: A549 NSCLC
# HS 578T breast = system: HS 578T breast
# MDA-MB-231 breast = system: MDA-MB-231 breast
# UO-31 renal = system: UO-31 renal
smiles,measurement,setting,value
COc1ccc(CN2C3CC2CN(c2ccc(-c4cc(OCC(C)(C)O)cn5ncc(C#N)c45)cn2)C3)cn1,GI50,SF-295 CNS,5.27 µM
same,TGI,SF-295 CNS,> 100 µM
same,GI50,RXF 393 renal,2.18 µM
same,TGI,RXF 393 renal,9.45 µM
same,GI50,HCT-116 colon,8.06 µM
same,TGI,HCT-116 colon,> 100 µM
same,GI50,CAKI-1 renal,4.78 µM
same,TGI,CAKI-1 renal,> 100 µM
same,GI50,SNB-75 CNS,1.32 µM
same,TGI,SNB-75 CNS,4.81 µM
same,GI50,T-47D breast,9.02 µM
same,TGI,T-47D breast,> 100 µM
same,GI50,NCI-H522 lung,17.5 µM
same,TGI,NCI-H522 lung,> 100 µM
same,GI50,LOX IMVI melanoma,15.1 µM
same,TGI,LOX IMVI melanoma,> 100 µM
same,GI50,HOP-62 NSCLC,4.72 µM
same,TGI,HOP-62 NSCLC,47.6 µM
same,GI50,TK-10 renal,10.5 µM
same,TGI,TK-10 renal,> 100 µM
same,GI50,HOP-92 NSCLC,2.12 µM
same,TGI,HOP-92 NSCLC,7.35 µM
same,GI50,SK-MEL-2 melanoma,> 100 µM
same,TGI,SK-MEL-2 melanoma,> 100 µM
same,GI50,SN12C renal,2.95 µM
same,TGI,SN12C renal,> 100 µM
same,GI50,CCRF-CEM leukemia,3.59 µM
same,TGI,CCRF-CEM leukemia,> 100 µM
same,GI50,OVCAR-4 ovarian,3.63 µM
same,TGI,OVCAR-4 ovarian,> 100 µM
same,GI50,BT-549 breast,3.34 µM
same,TGI,BT-549 breast,> 100 µM
same,GI50,OVCAR-5 ovarian,> 100 µM
same,TGI,OVCAR-5 ovarian,> 100 µM
same,GI50,HCT-15 colon,37.2 µM
same,TGI,HCT-15 colon,> 100 µM
same,GI50,K-562 leukemia,> 100 µM
same,TGI,K-562 leukemia,> 100 µM
same,GI50,SF-539 CNS,2.61 µM
same,TGI,SF-539 CNS,8.61 µM
same,GI50,RPMI-8226 leukemia,> 100 µM
same,TGI,RPMI-8226 leukemia,> 100 µM
same,GI50,COLO 205 colon,2.99 µM
same,TGI,COLO 205 colon,> 100 µM
same,GI50,MALME-3M melanoma,> 100 µM
same,TGI,MALME-3M melanoma,> 100 µM
same,GI50,U251 CNS,4.55 µM
same,TGI,U251 CNS,> 100 µM
same,GI50,EKVX NSCLC,6.9 µM
same,TGI,EKVX NSCLC,> 100 µM
same,GI50,HCC-2998 colon,93.7 µM
same,TGI,HCC-2998 colon,> 100 µM
same,GI50,M14 melanoma,24.2 µM
same,TGI,M14 melanoma,> 100 µM
same,GI50,HL-60(TB) leukemia,> 100 µM
same,TGI,HL-60(TB) leukemia,> 100 µM
same,GI50,ACHN renal,6.86 µM
same,TGI,ACHN renal,> 100 µM
same,GI50,OVCAR-8 ovarian,13.2 µM
same,TGI,OVCAR-8 ovarian,> 100 µM
same,GI50,SW-620 colon,4.49 µM
same,TGI,SW-620 colon,> 100 µM
same,GI50,NCI-H226 lung,1.66 µM
same,TGI,NCI-H226 lung,> 100 µM
same,GI50,UACC-62 melanoma,> 100 µM
same,TGI,UACC-62 melanoma,> 100 µM
same,GI50,NCI/ADR-RES ovarian,28.7 µM
same,TGI,NCI/ADR-RES ovarian,> 100 µM
same,GI50,KM12 colon,> 100 µM
same,TGI,KM12 colon,> 100 µM
same,GI50,OVCAR-3 ovarian,> 100 µM
same,TGI,OVCAR-3 ovarian,> 100 µM
same,GI50,SK-MEL-28 melanoma,> 100 µM
same,TGI,SK-MEL-28 melanoma,> 100 µM
same,GI50,MCF7 breast,6.06 µM
same,TGI,MCF7 breast,> 100 µM
same,GI50,HT29 colon,8.09 µM
same,TGI,HT29 colon,> 100 µM
same,GI50,UACC-257 melanoma,> 100 µM
same,TGI,UACC-257 melanoma,> 100 µM
same,GI50,SNB-19 CNS,20.7 µM
same,TGI,SNB-19 CNS,> 100 µM
same,GI50,PC-3 prostate,16.3 µM
same,TGI,PC-3 prostate,> 100 µM
same,GI50,DU-145 prostate,26.2 µM
same,TGI,DU-145 prostate,> 100 µM
same,GI50,SF-268 CNS,4.6 µM
same,TGI,SF-268 CNS,> 100 µM
same,GI50,SK-MEL-5 melanoma,> 100 µM
same,TGI,SK-MEL-5 melanoma,> 100 µM
same,GI50,MOLT-4 leukemia,52.9 µM
same,TGI,MOLT-4 leukemia,> 100 µM
same,GI50,NCI-H23 lung,17.8 µM
same,TGI,NCI-H23 lung,> 100 µM
same,GI50,A498 renal,0.51 µM
same,TGI,A498 renal,3.7 µM
same,GI50,SR leukemia,4.45 µM
same,TGI,SR leukemia,> 100 µM
same,GI50,SK-OV-3 ovarian,5.64 µM
same,TGI,SK-OV-3 ovarian,> 100 µM
same,GI50,IGROV1 ovarian,4.17 µM
same,TGI,IGROV1 ovarian,> 100 µM
same,GI50,NCI-H460 lung,15.9 µM
same,TGI,NCI-H460 lung,> 100 µM
same,GI50,MDA-MB-435,> 100 µM
same,TGI,MDA-MB-435,> 100 µM
same,GI50,A549 NSCLC,6.27 µM
same,TGI,A549 NSCLC,> 100 µM
same,GI50,HS 578T breast,2.01 µM
same,TGI,HS 578T breast,7.12 µM
same,GI50,MDA-MB-231 breast,8.04 µM
same,TGI,MDA-MB-231 breast,> 100 µM
same,GI50,UO-31 renal,7.32 µM
same,TGI,UO-31 renal,> 100 µM

# From PubChem BioAssay (NCI)
